From publication PMC11191402, “High-Affinity NIR-Fluorescent Inhibitors for Tumor Imaging via Carbonic Anhydrase IX” (Bioconjugate Chemistry, 2024)
Values joined by “and” are separate entries in the source; they are usually repeats but may differ in a detail not shown here. Equal values may be shown once.

How the values were obtained:
Assay type in all cases: binding
human recombinant CAII = biological target: T1, human recombinant CAII (Homo sapiens, UniProt P00918); test: Fluorescence-based thermal shift assay (FTSA), CAII; details: 37 °C, pH 7.0
T1 construct: made in house; host or cells: bacterial expression system
Experimental: (§1) The binding affinities of the four NIR-fluorescent compounds to 12 catalytically active recombinant CA isozymes were determined by the fluorescence-based thermal shift assay (FTSA), and the dissociation constants (Kd’s) at physiological pH (pH 7.0) and 37 °C are listed in Table 1.
(§2) All 12 catalytically active human CA isozymes were prepared recombinantly as previously described. Most isozymes were truncated, and only the catalytic domains of the proteins were produced.[9],[56] All isozymes were expressed in a bacterial expression system except that CAIX was expressed in mammalian cells. The proteins were chromatographically purified via immobilized metal affinity chromatography, ion-exchange, or p-aminomethylbenzenesulfonamide-sepharose affinity chromatography. Protein purity was confirmed by SDS-PAGE, and MW was confirmed by mass spectrometry with 1 Da precision, as predicted from theoretical protein sequence.
(§3) The fluorescence-based thermal shift assay (FTSA) was used to determine the binding affinity of compounds for all catalytically active CA isozymes. The assay is based on the thermal stabilization of proteins by bound ligands and distinguishes itself in its ability to determine extremely high affinity (picomolar Kd) of compound binding to CAIX. The experiments were performed with a QIAGEN Rotor-Gene Q instrument using either the blue channel (365 ± 20 nm excitation and 460 ± 15 nm emission detection) or the green channel (470 ± 10 nm excitation and 510 ± 5 nm detection). The protein solution, in the absence and presence of various compound concentrations ranging from 3 to 200 μM (2× dilutions), was heated from 25 to 99 °C (heating rate, 1 °C/min). The CA isozyme melting temperature Tm was determined by following the fluorescence of 8-anilino-1-naphthalenesulfonate (ANS) or Glomelt dye. The samples consisted of 5 μM protein (or 10 μM CAIV), different concentrations of the tested compound, and 50 μM ANS or 200× diluted Glomelt in 50 mM sodium phosphate buffer (at pH 7.0) containing 100 mM sodium chloride and 2–4% (v/v) dimethyl sulfoxide. To obtain the dissociation constant (at 37 °C), data analysis was performed, and the curves were fit using the Thermott Web server.[57]

human recombinant CAIII = biological target: T2, human recombinant CAIII (Homo sapiens, UniProt P07451); test: Fluorescence-based thermal shift assay (FTSA), CAIII; details: 37 °C, pH 7.0
T2 construct: made in house; host or cells: bacterial expression system
Experimental: as §1, §2, §3

human recombinant CAIV = biological target: T3, human recombinant CAIV (Homo sapiens, UniProt P22748); test: Fluorescence-based thermal shift assay (FTSA), CAIV; details: 37 °C, pH 7.0
T3 construct: Most isozymes were truncated, and only the catalytic domains of the proteins were produced; made in house; host or cells: bacterial expression system
Experimental: as §1, §2, §3

human recombinant CAVI = biological target: T4, human recombinant CAVI (Homo sapiens, UniProt P23280); test: Fluorescence-based thermal shift assay (FTSA), CAVI; details: 37 °C, pH 7.0
T4 construct: Most isozymes were truncated, and only the catalytic domains of the proteins were produced; made in house; host or cells: bacterial expression system
Experimental: as §1, §2, §3

human recombinant CAIX = biological target: T5, human recombinant CAIX (Homo sapiens, UniProt Q16790); test: Fluorescence-based thermal shift assay (FTSA), CAIX; details: 37 °C, pH 7.0
T5 construct: Most isozymes were truncated, and only the catalytic domains of the proteins were produced; made in house; host or cells: mammalian cells
Experimental: as §1, §2, §3

human recombinant CAXII = biological target: T6, human recombinant CAXII (Homo sapiens, UniProt O43570); test: Fluorescence-based thermal shift assay (FTSA), CAXII; details: 37 °C, pH 7.0
T6 construct: Most isozymes were truncated, and only the catalytic domains of the proteins were produced; made in house; host or cells: bacterial expression system
Experimental: as §1, §2, §3

human recombinant CAXIII = biological target: T7, human recombinant CAXIII (Homo sapiens, UniProt Q8N1Q1); test: Fluorescence-based thermal shift assay (FTSA), CAXIII; details: 37 °C, pH 7.0
T7 construct: made in house; host or cells: bacterial expression system
Experimental: as §1, §2
as §3, with “To obtain the dissociation constant (at 37 °C), data analysis was performed, and the curves were fit using the Thermott Web server.[57]” left out

human recombinant CAXIV = biological target: T8, human recombinant CAXIV (Homo sapiens, UniProt Q9ULX7); test: Fluorescence-based thermal shift assay (FTSA), CAXIV; details: 37 °C, pH 7.0
T8 construct: Most isozymes were truncated, and only the catalytic domains of the proteins were produced; made in house; host or cells: bacterial expression system
Experimental: as §1, §2, §3

[1] = biological target: T9, cell-expressed CAIX (HeLa cells grown under hypoxia) (Homo sapiens, UniProt Q16790); test: Competition assay with fluorescein-labeled GZ19-32 in live hypoxia-grown HeLa cells; details: 10 nM GZ19-32, Pt 2 nM CAIX
T9 construct: The cells were grown under hypoxia and not transfected; endogenous in cells; host or cells: HeLa cells, 3 days under hypoxia, not transfected
Experimental: Hypoxia-grown HeLa cell culture expressed approximately 2 nM CAIX, which was quantified by fluorescein-labeled GZ19-32 added at a constant concentration of 10 nM throughout the assay. The four NIR-fluorescent compounds were dosed and competed with the GZ19-32 compound in a dose-dependent manner. At high concentrations, all four compounds fully outcompeted the fluorescein-bearing compound yielding nice competition curves (Figure 2B). Each curve was fit using the total protein CAIX (Pt) value of 2 nM, and the Kd of GZ19-32 was 200 pM. The dissociation constants for each NIR-fluorescent compound were 4 nM for GZ21-19, 6 nM for GZ22-1, 1.5 nM for GZ22-4, and 15 nM for AZ21-6. Thus, compound affinities were similar but not identical, despite having identical headgroups. […] The affinity of fluorescein-bearing GZ19-32 was the highest of all, around 200 pM.
For the competition assay, live cells were seeded in 12-well plates and incubated for 3 days under hypoxia. 200 μL of serially diluted NIR-fluorescent compound (12 2-fold dilution steps) in the PBS medium, starting from 5120 nM (5120, 2560, 1280,..., 0 nM), was mixed with 200 μL of 20 nM GZ19-32 solution (PBS). After the removal of growth medium, 200 μL obtained solutions were applied to the cells grown in 12-well culture plates. Plates were incubated in the CO2 incubator at normoxia for 20 min. The solution was removed, and cells were washed 3 times for 1–2 min with 400 μL of PBS. Then, 180 μL of TrypLe express enzyme (Thermo Fisher) was added to each well and incubated in the normoxia chamber for 10 min. Then, 20 μL of Defined Trypsin Inhibitor solution (Thermo Fisher) was added and cells were resuspended by pipetting. 150 μL of the suspension from each well was transferred to Thermo Scientific Nunc MicroWell 96-Well Optical-Bottom Plates for fluorescence and absorbance measurements. 485 nm excitation and 520 nm emission wavelengths were used to measure fluorescence on a Synergy HTX, BioTek plate reader. 650 nm wavelength was used for absorbance measurements.

human recombinant CAI = biological target: T10, human recombinant CAI (Homo sapiens, UniProt P00915); test: Fluorescence-based thermal shift assay (FTSA), CAI; details: 37 °C, pH 7.0
T10 construct: made in house; host or cells: bacterial expression system
Experimental: as §1, §2
The fluorescence-based thermal shift assay (FTSA) was used to determine the binding affinity of compounds for all catalytically active CA isozymes. […] The CA isozyme melting temperature Tm was determined by following the fluorescence of 8-anilino-1-naphthalenesulfonate (ANS) or Glomelt dye. […]

T4 sequence (P23280 21-278 limits assumed): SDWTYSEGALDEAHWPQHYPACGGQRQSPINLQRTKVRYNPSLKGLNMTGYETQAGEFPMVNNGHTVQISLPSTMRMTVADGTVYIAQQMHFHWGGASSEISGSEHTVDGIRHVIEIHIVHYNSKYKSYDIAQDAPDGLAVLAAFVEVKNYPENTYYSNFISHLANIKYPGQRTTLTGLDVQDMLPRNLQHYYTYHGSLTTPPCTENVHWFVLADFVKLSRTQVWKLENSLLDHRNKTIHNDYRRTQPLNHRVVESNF
T8 sequence (Q9ULX7 20-278 limits assumed): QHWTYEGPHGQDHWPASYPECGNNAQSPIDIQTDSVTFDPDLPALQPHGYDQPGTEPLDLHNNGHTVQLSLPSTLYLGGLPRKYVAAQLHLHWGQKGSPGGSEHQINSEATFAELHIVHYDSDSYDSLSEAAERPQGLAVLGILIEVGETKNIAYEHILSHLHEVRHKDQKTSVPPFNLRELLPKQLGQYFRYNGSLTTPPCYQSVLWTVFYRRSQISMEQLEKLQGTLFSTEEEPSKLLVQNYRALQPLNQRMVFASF
T3 sequence (P22748 21-285 limits assumed): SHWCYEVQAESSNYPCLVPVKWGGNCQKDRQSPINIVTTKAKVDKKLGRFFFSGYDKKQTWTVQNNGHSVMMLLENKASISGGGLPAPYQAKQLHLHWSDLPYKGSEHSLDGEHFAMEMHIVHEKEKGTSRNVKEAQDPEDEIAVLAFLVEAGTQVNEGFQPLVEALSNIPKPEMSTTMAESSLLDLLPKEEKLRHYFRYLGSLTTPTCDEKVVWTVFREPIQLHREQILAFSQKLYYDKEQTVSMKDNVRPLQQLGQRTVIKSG
T2 sequence (P07451 whole entry): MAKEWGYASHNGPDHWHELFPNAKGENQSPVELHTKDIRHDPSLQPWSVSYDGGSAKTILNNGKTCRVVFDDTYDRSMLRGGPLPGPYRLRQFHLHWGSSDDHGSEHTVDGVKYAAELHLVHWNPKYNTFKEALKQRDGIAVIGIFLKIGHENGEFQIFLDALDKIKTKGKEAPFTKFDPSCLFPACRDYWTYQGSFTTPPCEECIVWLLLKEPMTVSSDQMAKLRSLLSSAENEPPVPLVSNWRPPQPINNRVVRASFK
T6 sequence (O43570 30-289 limits assumed): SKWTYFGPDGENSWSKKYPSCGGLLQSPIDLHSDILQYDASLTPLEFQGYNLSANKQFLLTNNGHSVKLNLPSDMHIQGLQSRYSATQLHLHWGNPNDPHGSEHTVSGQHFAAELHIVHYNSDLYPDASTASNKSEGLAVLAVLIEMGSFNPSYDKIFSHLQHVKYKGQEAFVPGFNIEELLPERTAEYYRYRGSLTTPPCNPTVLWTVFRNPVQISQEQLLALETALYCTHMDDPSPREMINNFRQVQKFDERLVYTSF
T7 sequence (Q8N1Q1 whole entry): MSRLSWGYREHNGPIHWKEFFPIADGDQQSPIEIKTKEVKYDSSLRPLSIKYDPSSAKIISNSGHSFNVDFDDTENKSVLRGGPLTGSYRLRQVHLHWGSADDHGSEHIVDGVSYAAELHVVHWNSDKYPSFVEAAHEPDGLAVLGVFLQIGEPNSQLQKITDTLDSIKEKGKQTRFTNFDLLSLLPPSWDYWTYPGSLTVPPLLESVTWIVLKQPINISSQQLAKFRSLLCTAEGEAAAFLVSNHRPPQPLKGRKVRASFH
T10 sequence (P00915 whole entry): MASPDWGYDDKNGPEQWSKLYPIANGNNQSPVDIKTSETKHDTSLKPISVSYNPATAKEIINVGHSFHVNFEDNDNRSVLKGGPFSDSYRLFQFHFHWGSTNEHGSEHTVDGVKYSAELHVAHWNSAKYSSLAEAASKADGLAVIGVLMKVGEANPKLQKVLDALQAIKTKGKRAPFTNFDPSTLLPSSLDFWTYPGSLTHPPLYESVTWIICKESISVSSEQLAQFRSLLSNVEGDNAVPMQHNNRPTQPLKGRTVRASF

Row | Kd (human recombinant CAII) [nM] | Kd (human recombinant CAIII) [nM] | Kd (human recombinant CAIV) [nM] | Kd (human recombinant CAVI) [nM] | Kd (human recombinant CAIX) | Kd (human recombinant CAXII) [nM] | Kd (human recombinant CAXIII) [nM] | Kd (human recombinant CAXIV) [nM] | Kd [1] [nM] | Kd (human recombinant CAI) [nM] | Compound
1 | 20 | 30000 | 7000 | 700 | 0.3 nM | 200 | 8 | 100 | 6 |  | CC1(C)C(/C=C/C2=C(Oc3ccc(CCC(=O)NCCCOCCOCCOCCCNC(=O)CCS(=O)(=O)c4c(F)c(F)c(S(N)(=O)=O)c(F)c4NC4CCCCCCC4)cc3)C(=C/C=C3\N(CCCCS(=O)(=O)[O-])c4ccccc4C3(C)C)/CCC2)=[N+](CCCCS(=O)(=O)[O-])c2ccccc21.[Na+] [GZ22-1, Sodium 4-((Z)-2-((E)-2-(2-(4-(21-((2-(Cyclooctylamino)-3,5,6-trifluoro-4-sulfamoylphenyl)sulfonyl)-3,19-dioxo-8,11,14-trioxa-4,18-diazahenicosyl)phenoxy)-3-((E)-2-(3,3-dimethyl-1-(4-sulfonatobutyl)-3H-indol-1-ium-2-yl)vinyl)cyclohex-2-en-1-ylidene)ethylidene)-3,3-dimethylindolin-1-yl)butane-1-sulfonate]
2 | 400 | 20000 | 2000 | 700 | 0.2 nM | 60 |  | 100 | 4 | 10000 | CC1(C)C(/C=C/C2=C(Oc3cccc(CC(=O)NCCCOCCOCCOCCCNC(=O)CCS(=O)(=O)c4c(F)c(F)c(S(N)(=O)=O)c(F)c4NC4CCCCCCC4)c3)C(=C/C=C3\N(CCCCS(=O)(=O)[O-])c4ccccc4C3(C)C)/CCC2)=[N+](CCCCS(=O)(=O)[O-])c2ccccc21.[Na+] [GZ21-19, Sodium 4-((Z)-2-((E)-2-(2-(3-(20-((2-(Cyclooctylamino)-3,5,6-trifluoro-4-sulfamoylphenyl)sulfonyl)-2,18-dioxo-7,10,13-trioxa-3,17-diazaicosyl)phenoxy)-3-((E)-2-(3,3-dimethyl-1-(4-sulfonatobutyl)-3H-indol-1-ium-2-yl)vinyl)cyclohex-2-en-1-ylidene)ethylidene)-3,3-dimethylindolin-1-yl)butane-1-sulfonate]
3 | 200 | 5000 | 8000 | 500 | 0.17 nM and 0.2 nM | 80 | 5 | 90 | 1.5 |  | CC1(C)C(/C=C/C2=C(Oc3ccc(CCC(=O)NCCOCCOCCOCCOCCOCCOCCOCCOCCOCCOCCOCCNC(=O)CCS(=O)(=O)c4c(F)c(F)c(S(N)(=O)=O)c(F)c4NC4CCCCCCC4)cc3)C(=C/C=C3\N(CCCCS(=O)(=O)[O-])c4ccccc4C3(C)C)/CCC2)=[N+](CCCCS(=O)(=O)[O-])c2ccccc21.[Na+] [GZ22-4, Sodium 4-((Z)-2-((E)-2-(2-(4-(43-((2-(Cyclooctylamino)-3,5,6-trifluoro-4-sulfamoylphenyl)sulfonyl)-3,41-dioxo-7,10,13,16,19,22,25,28,31,34,37-undecaoxa-4,40-diazatritetracontyl)phenoxy)-3-((E)-2-(3,3-dimethyl-1-(4-sulfonatobutyl)-3H-indol-1-ium-2-yl)vinyl)cyclohex-2-en-1-ylidene)ethylidene)-3,3-dimethylindolin-1-yl)butane-1-sulfonate]
4 | 2000 | 30000 | 8000 | 1000 | 0.3 nM | 50 | 10 | 100 | 15 | 20000 | CC1(C)C(/C=C/C2=C(NCCCOCCOCCOCCCNC(=O)CCC(=O)NCCS(=O)(=O)c3c(F)c(F)c(S(N)(=O)=O)c(F)c3NC3CCCCCCC3)C(=C/C=C3\N(CCCCS(=O)(=O)[O-])c4ccccc4C3(C)C)/CCC2)=[N+](CCCCS(=O)(=O)[O-])c2ccccc21.[Na+] [AZ21-6, Sodium 4-((Z)-2-((E)-2-(2-((1-((2-(Cyclooctylamino)-3,5,6-trifluoro-4-sulfamoylphenyl)sulfonyl)-4,7-dioxo-12,15,18-trioxa-3,8-diazahenicosan-21-yl)amino)-3-((E)-2-(3,3-dimethyl-1-(4-sulfonatobutyl)-3H-indol-1-ium-2-yl)vinyl)cyclohex-2-en-1-ylidene)ethylidene)-3,3-dimethylindolin-1-yl)butane-1-sulfonate]
